Source: PMC11997881, “Comprehensive Characterization of Bruton’s Tyrosine Kinase Inhibitor Specificity, Potency, and Biological Effects: Insights into Covalent and Noncovalent Mechanistic Signatures” (ACS Pharmacology & Translational Science, 2025)

Columns and labels:
Conditions in all cases: 1 μM
TXK = biological target: T1, TXK (Homo sapiens, UniProt P42681); experiment: scanMAX binding POC, TXK
T1 sequence (P42681 1-527): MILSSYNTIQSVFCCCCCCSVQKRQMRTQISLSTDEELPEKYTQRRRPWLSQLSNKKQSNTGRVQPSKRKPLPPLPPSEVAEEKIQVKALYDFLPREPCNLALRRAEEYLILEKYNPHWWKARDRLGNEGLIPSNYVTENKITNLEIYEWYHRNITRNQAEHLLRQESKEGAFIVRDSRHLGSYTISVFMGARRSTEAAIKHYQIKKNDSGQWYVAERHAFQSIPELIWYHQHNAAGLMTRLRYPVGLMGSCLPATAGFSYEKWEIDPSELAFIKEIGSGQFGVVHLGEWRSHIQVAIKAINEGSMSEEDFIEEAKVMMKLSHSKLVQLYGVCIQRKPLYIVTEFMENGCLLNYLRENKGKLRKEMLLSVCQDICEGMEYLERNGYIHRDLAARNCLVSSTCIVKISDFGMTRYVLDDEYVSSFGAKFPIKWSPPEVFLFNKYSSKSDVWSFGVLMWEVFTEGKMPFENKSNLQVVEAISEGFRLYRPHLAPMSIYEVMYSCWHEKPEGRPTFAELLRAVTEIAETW
Description: (§1) Comprehensive Characterization of Bruton’s Tyrosine Kinase Inhibitor Specificity, Potency, and
(§2) Biological Effects: Insights into Covalent and Non-Covalent Mechanistic Signatures
(§3) Antonia C. Darragh1, Andrew M. Hanna1, Justin H. Lipner2, Alastair J. King2, Nicole B. Servant1, Mirza Jahic1*
(§4) *To whom correspondence should be addressed: Mirza Jahic, e-mail address: Mirza.Jahic@discovery.eurofinsus.com
(§5) Supporting Table S1. Comparison of BTK inhibitor specificity to TEC family members. TEC family members are
(§6) Burton’s tyrosine kinase (BTK), tyrosine kinase expressed in hepatocellular carcinoma (TEC), bone marrow-
(§7) expressed kinase (BMX/ETK), and T cell-expressed kinase (TXK/RLK), and interleukin-2-inducible T cell kinase
(§8) A zero POC signifies that the compound

MKK7 = biological target: T2, MKK7 (Homo sapiens, UniProt O14733); experiment: scanMAX binding POC, MKK7
T2 sequence (O14733 1-419): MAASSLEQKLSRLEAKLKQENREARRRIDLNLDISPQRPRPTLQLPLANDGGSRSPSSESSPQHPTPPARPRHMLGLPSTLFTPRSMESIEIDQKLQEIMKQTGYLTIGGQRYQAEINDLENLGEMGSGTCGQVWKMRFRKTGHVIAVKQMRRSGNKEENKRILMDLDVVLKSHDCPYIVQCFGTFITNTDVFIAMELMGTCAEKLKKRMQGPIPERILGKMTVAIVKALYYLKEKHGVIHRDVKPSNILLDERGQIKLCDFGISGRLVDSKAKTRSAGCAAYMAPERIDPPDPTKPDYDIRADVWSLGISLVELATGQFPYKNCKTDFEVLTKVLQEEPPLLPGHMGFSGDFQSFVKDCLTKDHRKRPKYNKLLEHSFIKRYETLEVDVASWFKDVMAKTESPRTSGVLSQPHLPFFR

JNK1 (MAPK8) = JNK1 (MAPK8) (Homo sapiens, UniProt P45983); experiment: scanMAX binding POC, JNK1
Chain of JNK1 (MAPK8) (P45983 whole entry): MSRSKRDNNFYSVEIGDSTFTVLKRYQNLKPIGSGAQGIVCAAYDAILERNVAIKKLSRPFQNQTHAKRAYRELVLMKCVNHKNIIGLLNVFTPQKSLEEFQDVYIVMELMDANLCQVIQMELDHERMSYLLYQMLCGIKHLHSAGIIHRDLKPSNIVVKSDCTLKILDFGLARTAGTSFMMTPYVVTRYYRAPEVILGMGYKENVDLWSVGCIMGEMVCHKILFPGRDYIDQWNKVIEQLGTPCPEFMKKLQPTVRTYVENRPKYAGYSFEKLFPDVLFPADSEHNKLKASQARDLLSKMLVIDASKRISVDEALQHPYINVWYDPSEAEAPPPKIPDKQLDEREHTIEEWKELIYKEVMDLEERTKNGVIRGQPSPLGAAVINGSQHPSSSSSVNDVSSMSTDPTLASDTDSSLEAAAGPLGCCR
Description: (§9) The compounds were diluted directly into the assays such that the final concentration of DMSO was 0.9%. No enzyme purification steps were performed on the protein extracts before adding them to the reaction mixture, and the protein extracts were diluted 10,000-fold in the final reaction mixture (the final DNA-tagged enzyme concentration was less than 0.1 nM). Binding assay mixtures were incubated at 25 °C with shaking for 1 h. […] The concentration of wild-type or mutant BTK in the eluates was then determined using quantitative PCR. […] Each assay’s affinity ligand concentration on the magnetic beads has been optimized to ensure that the true thermodynamic Kd values for competitor molecules were measured, as described in detail previously99.
(§10) Comparison of BTK inhibitor specificity to c-Jun N-terminal kinases (JNK1-3/MAPKP8-10).
(§11) a The percent of control (POC) is the percent of kinase that was competed off its control ligand relative to the positive and negative controls at the screening concentration56. A zero POC signifies that the compound

ERBB4 = ERBB4 (Homo sapiens, UniProt Q15303); experiment: scanMAX binding POC, ERBB4
Chain of ERBB4 (Q15303 26-1308): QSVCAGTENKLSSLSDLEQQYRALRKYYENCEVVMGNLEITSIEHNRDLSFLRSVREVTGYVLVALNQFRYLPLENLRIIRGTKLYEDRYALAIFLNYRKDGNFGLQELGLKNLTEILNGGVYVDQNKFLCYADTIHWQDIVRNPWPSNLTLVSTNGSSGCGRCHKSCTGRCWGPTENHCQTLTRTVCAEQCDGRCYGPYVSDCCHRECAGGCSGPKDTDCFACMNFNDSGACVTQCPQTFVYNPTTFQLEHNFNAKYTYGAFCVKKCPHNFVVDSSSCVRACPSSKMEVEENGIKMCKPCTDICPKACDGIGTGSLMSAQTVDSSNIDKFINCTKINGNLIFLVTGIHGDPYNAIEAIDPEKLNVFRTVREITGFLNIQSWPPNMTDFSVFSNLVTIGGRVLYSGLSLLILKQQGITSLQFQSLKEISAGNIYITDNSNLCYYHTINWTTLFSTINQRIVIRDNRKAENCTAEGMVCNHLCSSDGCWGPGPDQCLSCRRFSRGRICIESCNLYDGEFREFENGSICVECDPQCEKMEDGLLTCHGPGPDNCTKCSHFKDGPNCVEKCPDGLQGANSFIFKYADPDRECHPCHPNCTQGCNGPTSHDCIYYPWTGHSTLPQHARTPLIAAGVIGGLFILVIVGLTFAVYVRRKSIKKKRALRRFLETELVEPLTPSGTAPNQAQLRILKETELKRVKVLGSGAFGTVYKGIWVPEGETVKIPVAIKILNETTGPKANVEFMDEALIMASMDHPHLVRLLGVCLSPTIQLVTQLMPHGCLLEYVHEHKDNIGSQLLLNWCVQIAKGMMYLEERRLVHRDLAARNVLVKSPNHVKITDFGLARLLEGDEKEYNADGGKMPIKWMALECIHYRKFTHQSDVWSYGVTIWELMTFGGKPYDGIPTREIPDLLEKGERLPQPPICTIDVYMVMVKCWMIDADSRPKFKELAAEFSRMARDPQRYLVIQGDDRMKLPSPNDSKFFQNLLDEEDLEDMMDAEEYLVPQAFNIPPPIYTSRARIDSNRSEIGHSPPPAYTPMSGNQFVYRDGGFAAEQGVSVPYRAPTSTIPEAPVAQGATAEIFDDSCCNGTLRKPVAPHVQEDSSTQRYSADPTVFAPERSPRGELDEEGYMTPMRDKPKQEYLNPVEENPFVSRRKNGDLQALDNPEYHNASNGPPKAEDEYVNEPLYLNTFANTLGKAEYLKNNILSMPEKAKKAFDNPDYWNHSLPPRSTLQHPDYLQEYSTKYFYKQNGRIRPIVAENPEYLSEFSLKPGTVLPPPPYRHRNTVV

ITK = biological target: T3, ITK (Homo sapiens, UniProt Q08881); experiment: scanMAX binding POC, ITK
T3 sequence (Q08881 1-620): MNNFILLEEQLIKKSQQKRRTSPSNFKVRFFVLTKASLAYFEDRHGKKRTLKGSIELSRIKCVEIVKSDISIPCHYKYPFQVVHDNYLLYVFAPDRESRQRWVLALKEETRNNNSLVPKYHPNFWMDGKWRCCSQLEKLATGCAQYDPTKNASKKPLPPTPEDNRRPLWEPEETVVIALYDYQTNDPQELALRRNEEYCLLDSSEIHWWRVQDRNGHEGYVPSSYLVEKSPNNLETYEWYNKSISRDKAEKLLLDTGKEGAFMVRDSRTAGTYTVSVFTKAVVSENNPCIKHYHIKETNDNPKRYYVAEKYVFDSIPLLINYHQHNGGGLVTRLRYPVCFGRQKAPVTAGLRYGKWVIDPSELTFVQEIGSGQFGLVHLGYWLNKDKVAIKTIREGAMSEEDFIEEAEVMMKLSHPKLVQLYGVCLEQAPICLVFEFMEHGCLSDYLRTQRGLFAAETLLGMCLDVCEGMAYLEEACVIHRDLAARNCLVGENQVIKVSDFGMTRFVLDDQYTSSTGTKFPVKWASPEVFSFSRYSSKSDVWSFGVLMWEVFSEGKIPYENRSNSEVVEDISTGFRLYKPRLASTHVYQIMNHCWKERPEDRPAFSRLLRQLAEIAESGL
Description: as §1, §2, §3, §4, §5, §6, §7, §8

JNK2 (MAPK9) = JNK2 (MAPK9) (Homo sapiens, UniProt P45984); experiment: scanMAX binding POC, JNK2
Chain of JNK2 (MAPK9) (P45984 whole entry): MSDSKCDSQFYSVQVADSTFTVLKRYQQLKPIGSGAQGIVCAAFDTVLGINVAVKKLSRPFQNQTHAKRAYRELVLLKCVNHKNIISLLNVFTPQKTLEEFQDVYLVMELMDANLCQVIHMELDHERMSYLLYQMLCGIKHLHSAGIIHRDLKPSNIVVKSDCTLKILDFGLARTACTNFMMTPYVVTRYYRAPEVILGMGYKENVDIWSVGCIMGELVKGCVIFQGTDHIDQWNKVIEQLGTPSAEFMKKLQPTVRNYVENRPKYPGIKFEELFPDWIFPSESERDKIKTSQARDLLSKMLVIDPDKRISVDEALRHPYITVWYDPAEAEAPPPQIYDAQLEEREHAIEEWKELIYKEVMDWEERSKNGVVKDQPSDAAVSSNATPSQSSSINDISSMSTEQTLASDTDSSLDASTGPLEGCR
Description: as §9, §10, §11

JNK3 (MAPK10) = JNK3 (MAPK10) (Homo sapiens, UniProt P53779); experiment: scanMAX binding POC, JNK3
Chain of JNK3 (MAPK10) (P53779 whole entry): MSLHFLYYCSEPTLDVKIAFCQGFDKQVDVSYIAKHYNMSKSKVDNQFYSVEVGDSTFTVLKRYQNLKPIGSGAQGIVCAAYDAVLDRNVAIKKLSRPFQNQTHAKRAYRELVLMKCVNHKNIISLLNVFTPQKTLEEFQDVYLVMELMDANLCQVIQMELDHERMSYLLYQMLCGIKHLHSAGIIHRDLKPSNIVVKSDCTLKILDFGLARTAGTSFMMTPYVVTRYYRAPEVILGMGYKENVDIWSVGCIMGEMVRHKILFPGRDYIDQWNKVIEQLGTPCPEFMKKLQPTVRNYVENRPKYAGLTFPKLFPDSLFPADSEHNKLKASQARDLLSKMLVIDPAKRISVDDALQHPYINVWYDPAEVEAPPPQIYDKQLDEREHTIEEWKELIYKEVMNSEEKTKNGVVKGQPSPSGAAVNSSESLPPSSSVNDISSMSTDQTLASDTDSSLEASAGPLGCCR
Description: as §9, §10, §11

ERBB3 = ERBB3 (Homo sapiens, UniProt P21860); experiment: scanMAX binding POC, ERBB3
Chain of ERBB3 (P21860 20-1342): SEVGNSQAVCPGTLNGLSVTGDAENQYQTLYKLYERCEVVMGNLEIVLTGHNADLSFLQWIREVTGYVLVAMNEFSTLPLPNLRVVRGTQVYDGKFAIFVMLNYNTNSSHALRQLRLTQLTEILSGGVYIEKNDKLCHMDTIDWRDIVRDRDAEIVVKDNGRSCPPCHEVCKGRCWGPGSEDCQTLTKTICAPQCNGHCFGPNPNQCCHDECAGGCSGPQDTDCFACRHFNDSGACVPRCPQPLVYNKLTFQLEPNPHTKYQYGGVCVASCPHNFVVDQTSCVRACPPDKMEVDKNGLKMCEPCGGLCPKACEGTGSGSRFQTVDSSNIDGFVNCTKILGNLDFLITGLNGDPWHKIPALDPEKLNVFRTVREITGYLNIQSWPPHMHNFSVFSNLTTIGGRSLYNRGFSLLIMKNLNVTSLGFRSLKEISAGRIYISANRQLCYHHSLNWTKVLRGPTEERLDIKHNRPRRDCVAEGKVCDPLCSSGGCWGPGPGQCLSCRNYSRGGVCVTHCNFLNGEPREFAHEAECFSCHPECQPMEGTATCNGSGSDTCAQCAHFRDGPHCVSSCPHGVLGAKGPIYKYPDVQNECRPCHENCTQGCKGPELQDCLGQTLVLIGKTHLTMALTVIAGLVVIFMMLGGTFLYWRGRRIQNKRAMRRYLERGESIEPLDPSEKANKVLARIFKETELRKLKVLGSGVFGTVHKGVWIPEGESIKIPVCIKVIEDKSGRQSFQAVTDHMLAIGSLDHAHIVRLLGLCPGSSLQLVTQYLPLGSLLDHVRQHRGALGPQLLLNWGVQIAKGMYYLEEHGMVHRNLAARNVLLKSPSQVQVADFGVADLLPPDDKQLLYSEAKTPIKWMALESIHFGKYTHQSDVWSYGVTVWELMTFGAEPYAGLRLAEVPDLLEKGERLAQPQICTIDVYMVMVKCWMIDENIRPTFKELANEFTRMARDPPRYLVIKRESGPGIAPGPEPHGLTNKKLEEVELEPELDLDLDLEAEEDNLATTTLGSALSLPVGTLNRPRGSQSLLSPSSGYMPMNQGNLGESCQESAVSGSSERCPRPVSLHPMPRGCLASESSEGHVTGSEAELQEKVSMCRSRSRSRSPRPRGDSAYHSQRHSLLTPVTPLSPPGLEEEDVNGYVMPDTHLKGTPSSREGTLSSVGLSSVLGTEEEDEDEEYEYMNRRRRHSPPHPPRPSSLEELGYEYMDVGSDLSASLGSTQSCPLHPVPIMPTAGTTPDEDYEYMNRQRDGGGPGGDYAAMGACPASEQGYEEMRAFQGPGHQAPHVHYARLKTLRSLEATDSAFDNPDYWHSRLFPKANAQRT

TEC = biological target: T4, TEC (Homo sapiens, UniProt P42680); experiment: scanMAX binding POC, TEC
T4 sequence (P42680 1-631): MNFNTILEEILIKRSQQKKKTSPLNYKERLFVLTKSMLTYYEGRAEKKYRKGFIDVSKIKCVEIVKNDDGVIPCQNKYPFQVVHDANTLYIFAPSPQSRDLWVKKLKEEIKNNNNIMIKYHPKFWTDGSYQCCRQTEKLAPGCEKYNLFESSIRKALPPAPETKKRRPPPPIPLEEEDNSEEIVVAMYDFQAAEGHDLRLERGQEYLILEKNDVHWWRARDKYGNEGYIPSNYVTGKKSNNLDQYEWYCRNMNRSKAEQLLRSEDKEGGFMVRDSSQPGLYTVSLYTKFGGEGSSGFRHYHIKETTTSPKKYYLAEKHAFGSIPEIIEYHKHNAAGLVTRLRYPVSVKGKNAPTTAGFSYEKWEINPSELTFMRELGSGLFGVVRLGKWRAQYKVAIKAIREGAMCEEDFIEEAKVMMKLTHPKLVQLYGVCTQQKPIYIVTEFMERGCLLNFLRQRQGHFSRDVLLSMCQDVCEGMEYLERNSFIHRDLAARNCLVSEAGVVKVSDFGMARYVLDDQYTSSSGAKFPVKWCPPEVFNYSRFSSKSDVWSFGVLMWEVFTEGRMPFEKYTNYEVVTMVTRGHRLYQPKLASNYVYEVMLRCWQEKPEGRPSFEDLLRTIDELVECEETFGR
Description: as §1, §2, §3, §4, §5, §6, §7, §8

[1] = biological target: T5, JAK3 (JH1 catalytic domain) (Homo sapiens, UniProt P52333); experiment: scanMAX binding POC, JAK3
T5 construct: The JAK3 POC is for its JH1 catalytic domain
T5 sequence (P52333 822-1111 limits assumed): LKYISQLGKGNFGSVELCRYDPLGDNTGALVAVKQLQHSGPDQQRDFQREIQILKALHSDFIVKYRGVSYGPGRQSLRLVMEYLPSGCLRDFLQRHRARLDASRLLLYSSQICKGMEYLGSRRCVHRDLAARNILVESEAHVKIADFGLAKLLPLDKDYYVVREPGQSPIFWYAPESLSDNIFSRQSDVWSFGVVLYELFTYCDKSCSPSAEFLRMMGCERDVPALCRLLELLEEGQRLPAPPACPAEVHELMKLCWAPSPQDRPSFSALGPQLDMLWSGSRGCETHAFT

Row | SMILES | TXK binding POC (TXK) | MKK7 binding POC (MKK7) | MKK7 binding POC (MKK7; listed as elsubrutinib) | JNK1 (MAPK8) POC (JNK1 (MAPK8)) | ERBB4 binding POC (ERBB4) | ITK binding POC (ITK) | JNK2 (MAPK9) POC (JNK2 (MAPK9)) | JNK3 (MAPK10) POC (JNK3 (MAPK10)) | ERBB3 binding POC (ERBB3) | TEC binding POC (TEC) | JAK3 binding POC [1]
1 | C=CC(=O)N1CCC[C@@H](c2ccc(C(N)=O)c3[nH]ccc23)C1 [Elsubrutinib] | 25% of control | 24% of control | weak hit | 96% of control | 91% of control | 94% of control | 91% of control | 94% of control | 74% of control | 18% of control | 0.15% of control
2 | C[C@H]1CN(C2COC2)CCN1c1ccc(Nc2cc(-c3ccnc(N4CCn5c(cc6c5CC(C)(C)C6)C4=O)c3CO)cn(C)c2=O)nc1 [Fenebrutinib] | 53% of control | 89% of control | – | 100% of control | 100% of control | 25% of control | 100% of control | 100% of control | 78% of control | 17% of control | 95% of control
3 | O=C(c1ccc(Oc2ccccc2)cc1Cl)c1c[nH]c2ncnc(N[C@@H]3CC[C@@H](CO)OC3)c12 [Nemtabrutinib] | 2.7% of control | 39% of control | – | 39% of control | 0.35% of control | 86% of control | 100% of control | 100% of control | 0.9% of control | 7.3% of control | 86% of control
4 | COc1ccc(F)cc1C(=O)NCc1ccc(-c2nn([C@@H](C)C(F)(F)F)c(N)c2C(N)=O)cc1 [Pirtobrutinib] | 11% of control | 91% of control | – | 96% of control | 2% of control | 100% of control | 94% of control | 100% of control | 97% of control | 12% of control | 77% of control
5 | C=CC(=O)Nc1cccc(Oc2nc(Nc3ccc(N4CCN(C)CC4)cc3)nc3ccoc23)c1 [Poseltinib] | 4.4% of control | 100% of control | – | 32% of control | 0.15% of control | 1% of control | 100% of control | 100% of control | 97% of control | 8.5% of control | 0.45% of control
6 | C=CC(=O)Nc1cccc(Nc2nc(Nc3ccc(OCCOC)cc3)ncc2F)c1 [Spebrutinib] | 4.5% of control | 79% of control | – | 4.8% of control | 17% of control | 51% of control | 8.4% of control | 3.9% of control | 83% of control | 8.1% of control | 0% of control
